Values of other authors as cited in US7618650B2, “Combination of a hypnotic agent and substituted bis aryl and heteroaryl compound and therapeutic application thereof” (Aventis Pharmaceuticals Inc, priority 2005, dated 2009).

Conditions: average dosage between 5 and 10 mg in a conventional formulation

For `Cc1ccc(-c2nc3ccc(C)cn3c2CC(=O)N(C)C)cc1` [Zolpidem, zolpidem], the “half life, average value” is given as “about 2.4 hours”.
